# Test results: PMC9586926, “An efflux-susceptible antibiotic-adjuvant with systemic efficacy against mouse infections” (Scientific Reports, 2022)
# Where a SMILES comes first, the peptide text is derived from it. [ ]: non-standard residue; d: D form. The star is where a group is joined. 12Ado = NCCCCCCCCCCCC(=O)O; Decanoyl = CCCCCCCCCC(=O)*; Dab = NCC[C@H](N)C(=O)O
# Assays:
# A. baumannii = experiment: MIC, broth microdilution; format: cell-based, Acinetobacter baumannii; conditions: broth microdilution in LB, 18–24 h, 37 °C; n = 1 strain
# Excerpt: Bacteria used in this study consisted of standard American Type Culture Collection (ATCC; Biological Industries, Beit Haemek, Israel) strains, clinically isolated (CI; Sourasky Medical Center, Tel Aviv, Israel) strains, as well as isogenic mutant strains. Gram-negative bacteria included Acinetobacter baumannii ATCC 19606; Escherichia coli ATCC 25922, 35218, CFT073, CI 14384, 16327, and the isogenic pair Ag100 (wild-type) and its efflux deficient mutant Ag100a (ΔacrAB); Klebsiella pneumoniae CI 1287, 224; Pseudomonas aeruginosa ATCC 27853, CI 1278, 8634; Salmonella enterica serovar Typhimurium ATCC 14028 (wild-type) and its isogenic efflux deficient mutant ΔacrAB. Bacteria were grown in Luria–Bertani broth (LB; 5 g/l NaCl, 5 g/l yeast extract, 10 g/l tryptone; pH = 7.0) at 37 °C with shaking. Over-night cultures were diluted 10-folds into fresh growth-medium and incubated at 37 °C with shaking until reaching mid-logarithmic phase. Then, bacterial concentrations were adjusted using O.D.600 nm measurements, and bacteria were subjected to the experimental procedures listed herein.
# (§1) MIC was determined according to the broth microdilution method: antimicrobials were subjected to serial twofold dilutions in LB medium, and incubated with 5 × 10^5 CFU/ml of bacteria (final volume of 200 µl) for 18–24 h at 37 °C. Then, O.D.620 nm was measured (BioTek Instruments Synergy HT; Winooski, VT, USA), and the MIC was defined as the lowest antimicrobial concentration for which no increase in O.D.620 nm was evident, compared to the untreated control.
# HEK-293FT = experiment: Cytotoxicity, Alamar blue; format: cell-based, human; conditions: 24 h incubation, read-out: IC50 HEK-293FT (50% inhibition of cells respiration)
# Procedure: (§2) Cell lines used in this study included murine RAW 264.7 macrophages and human embryonic kidney HEK-293FT cells (ATCC, Biological Industries, Beit Haemek, Israel). Cells were grown in Dulbecco’s modified eagle medium (DMEM) containing […] glucose, L-glutamine, sodium bicarbonate and sodium pyruvate, supplemented with 10% fetal bovine serum and pen-strep, at 37 °C and 5% CO2.
# (§3) Lipopeptides cytotoxicity was determined using fluorescent measurements of reduced resazurin. 2 × 10^4 cells were first cultured in 96-well plates over-night (final volume of 100 µl) at 37 °C and 5% CO2. Then, the medium was removed and cells were incubated for an additional 24 h with serial twofold dilutions of the lipopeptides in growth medium. Then, 10 µl of Alamar blue were added and plates were incubated for 3 h, after which fluorescence (excitation: 530 nm; emission: 590 nm) of the reduced resazurin was recorded (BioTek Instruments Synergy HT; Winooski, VT, USA).
# [1] = […] S.C., mice plasma, UPLC-MS
# Procedure: Animal procedures were reviewed and approved by the Institutional Animal Care and Use Committee (ethics no. IL-0800519, IL-0760711, IL-0550618, IL-0320320, IL-1270821) and performed in accordance with the “Guide for the Care and Use of Laboratory Animals”, published by the US National Research Council[70]. The study is reported in accordance with ARRIVE guidelines. All protocols employed 4–5-week-old male ICR mice, weighing 20–25 g (Envigo; Jerusalem, Israel). Mice were kept on a 12 h light/dark cycle and provided with food and water ad-libitum. At the designated experimental end-points mice were euthanized by means of CO2 asphyxiation. […]
# To assess lipopeptides circulating concentrations, mice (N = 3 per group) were S.C. administered with lipopeptides solutions (0.2 ml), sacrificed at specified times afterwards and their blood was aseptically collected. […] 0.5 ml of the supernatant were diluted 2-folds with Milli-Q water and analyzed by UPLC-MS using a C18 column. Quantification was performed using a calibration-curve generated with similarly processed blood samples, initially spiked with known lipopeptide concentrations. […] Quantification was performed using a calibration-curve generated with fresh lipopeptide solutions of known concentrations prepared in Milli-Q water.
# RAW 264.7 = experiment: Cytotoxicity, Alamar blue; format: cell-based, murine; conditions: 24 h incubation, read-out: IC50 RAW 264.7 (50% inhibition of cells respiration)
# Procedure: as §2, §3
# E. coli 25922 = format: cell-based, Escherichia coli
# Procedure: as §1
# Lipopeptides and antibiotics combinations were assessed using a modified version of the checkerboard titration method: Antibiotics MIC was determined in LB medium containing sub-inhibitory lipopeptide concentrations. The sensitization factor (SF)[46] was then calculated by SF = MICA/MICC, where “MICA” is the antibiotic MIC in absence of an adjuvant and “MICC “ is the antibiotic MIC in presence of an adjuvant, for a specified adjuvant concentration. Combinations were classified as synergistic when antibiotics MIC were decreased by > 4 folds. Alternatively, the fractional inhibitory concentration index (FICI) was calculated by FICI = MICC1/MICA1 + MICC2/MICA2, where “MICC1” and “MICC2” respectively specify the antibiotic and the adjuvant MIC values upon their combination, whereas “MICA1” and “MICA2” respectively specify the antibiotic and the adjuvant MIC values when tested individually. Combinations were classified as synergistic for FICI < 0.5.
smiles,measurement,setting,value
"CCCCCCCCCC(=O)N[C@@H](CCN)C(=O)N[C@@H](CCN)C(=O)NCCCCCCCCCCCC(=O)N[C@@H](CCN)C(N)=O [C10BBc12B, decanoyl-bis.diaminobutyrate-aminododecanoyl-diaminobutyrate-amide] (Decanoyl-[Dab][Dab][12Ado][Dab]-NH2)",MIC A. baumannii (n=1),A. baumannii,> 50 µM
same,IC50,HEK-293FT,> 50 µM
same,time with antibiotics potentiating concentrations (≥ 2.5 µg/ml) maintained,[1],> 2 h
same,time after which most lipopeptide cleared from the bloodstream,[1]; n = 3 per time point,~ 180 min
same,IC50,RAW 264.7,> 50 µM
same,relationship with EPI PAβN in rifampin potentiation,"E. coli 25922; 10 µM C10BBc12B ± 5 µg/ml PAβN, SF for rifampin",antagonistic relationship
same,sensitization efficiency to rifampin,"E. coli 25922; E. coli, from isobologram data","65,000 folds"
